One test has as its target T1, GIRK1/4 (Homo sapiens, UniProt P48544+P48549).
T1 sequence (P48549 1-501): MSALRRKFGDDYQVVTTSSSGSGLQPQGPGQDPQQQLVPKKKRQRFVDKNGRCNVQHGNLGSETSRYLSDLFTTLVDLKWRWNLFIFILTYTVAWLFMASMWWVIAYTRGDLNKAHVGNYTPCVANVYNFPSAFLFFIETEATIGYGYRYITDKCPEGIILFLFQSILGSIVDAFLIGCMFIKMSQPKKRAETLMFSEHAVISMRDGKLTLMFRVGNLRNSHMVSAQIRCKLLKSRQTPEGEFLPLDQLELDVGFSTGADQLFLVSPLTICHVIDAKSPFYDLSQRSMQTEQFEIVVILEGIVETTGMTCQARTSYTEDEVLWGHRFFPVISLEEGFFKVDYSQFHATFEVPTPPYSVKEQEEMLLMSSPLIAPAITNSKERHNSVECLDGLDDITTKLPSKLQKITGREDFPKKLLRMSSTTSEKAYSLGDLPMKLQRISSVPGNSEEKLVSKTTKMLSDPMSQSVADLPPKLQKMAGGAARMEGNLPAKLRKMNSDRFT
T1 sequence (P48544 1-419): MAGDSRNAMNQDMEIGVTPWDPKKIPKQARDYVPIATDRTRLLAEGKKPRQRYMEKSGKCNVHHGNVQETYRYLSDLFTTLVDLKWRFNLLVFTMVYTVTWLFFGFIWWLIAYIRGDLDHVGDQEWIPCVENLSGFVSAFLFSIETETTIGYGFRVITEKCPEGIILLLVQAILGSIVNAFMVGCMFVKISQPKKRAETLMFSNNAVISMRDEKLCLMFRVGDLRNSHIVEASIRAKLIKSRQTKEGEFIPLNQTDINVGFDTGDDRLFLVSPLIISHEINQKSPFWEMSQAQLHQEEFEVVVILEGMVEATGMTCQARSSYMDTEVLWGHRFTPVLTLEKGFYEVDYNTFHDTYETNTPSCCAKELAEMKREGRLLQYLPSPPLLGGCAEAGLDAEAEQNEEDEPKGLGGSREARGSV
Nature of the test: two-electrode voltage clamp (TEVC) in Xenopus oocytes expressing GIRK1/4 wild-type. To be noted: for activation of GIRK1/4 (in words): concentration-response, FIGS. 34A-34I; for Emax: ML297 considered 100%, read-out: EMAX at GIRK1/4, % relative to ML297; for EC50: TEVC, Xenopus oocytes, GIRK1/4 wild-type; for EMAX at GIRK1/4: current normalized to basal current; for modulation of GIRK1/4 channels (in words): Examples 5 and 6, Xenopus oocytes. Format: cell-based. More on the design: expressed in transfected cells; host or cells: Xenopus laevis oocytes (cRNA injection). The text has this: (§1) Molecular biology: For Xenopus oocyte expression, human GIRK1 and human GIRK4 cDNAs were subcloned into pGEMHE. For mammalian expression, human GIRK1 and human GIRK4 cDNAs were subcloned into pcDNA3 and pcDNA3.1/V5-His B, respectively (Invitrogen). Mouse GIRK2 cDNA was subcloned in the dual-function vector, pXoom. Point mutations were introduced using a standard Pfu-based mutagenesis technique according to the QuikChange protocol (Agilent). Mutations were verified by sequencing.
(§2) Xenopus laevis oocyte expression: Plasmid DNAs of GIRK channel subunits were linearized prior to in vitro transcription. Capped RNAs were transcribed using mMESSAGE mMACHINE T7 Transcription Kit (Thermo Fisher Scientific). Xenopus oocytes were surgically extracted, dissociated and defolliculated by collagenase treatment, and microinjected with 50 nl of a water solution containing 1 ng of each GIRK subunit RNA. For TEVC experiments, oocytes were kept 2 days at 17° C. before recording, while for NPo experiments oocytes were incubated for up to 4 days at 17° C.
(§3) Xenopus laevis oocyte expression: All cDNA constructs in the pGEMHE vector were linearized using the NheI restriction enzyme, whereas those in the pXoom vector were linearized using the XhoI restriction enzyme. Linearized cDNAs were in vitro-transcribed using the mMessage mMachine® kit (Ambion) kit. Complementary RNA (cRNA) concentrations were quantified by optical density. Xenopus oocytes were surgically extracted, dissociated, and defolliculated by collagenase treatment and microinjected with 50 nl of the desired cRNAs diluted in RNAase-free water. The use of Xenopus laevis frogs for this study was approved by the Institutional Animal Care and Use Committee (IACUC) at Northeastern University. All constructs used in this study were injected to achieve between 1-2 ng per oocyte depending on the channel. Oocytes were incubated for 2 days at 18° C.
(§4) Electrophysiology of oocytes: Whole-oocyte currents were measured by conventional two-electrode voltage clamp (TEVC) with a GeneClamp 500 amplifier (Axon Instruments). […] Barium-sensitive currents were normalized to average basal current in the vehicle solutions. The HK solution contained the following: 96 mM KCl, 1 mM NaCl, 1 mM MgCl2, 5 mM KOH/HEPES, pH 7.4. The barium solution consisted of HK+10 mM BaCl2. Five to ten oocytes from the same batch (same frog) were recorded for each group, and the experiments were repeated in at least four batches. Data acquisition and analysis were carried out using pClamp9 (Molecular Devices) and OriginPro (Microcal) software.

The next test addresses T2, GIRK1/2 (UniProt P48542+P48549).
T2 sequence (P48549 1-501): T1 sequence (P48549 1-501)
T2 sequence (P48542 1-425): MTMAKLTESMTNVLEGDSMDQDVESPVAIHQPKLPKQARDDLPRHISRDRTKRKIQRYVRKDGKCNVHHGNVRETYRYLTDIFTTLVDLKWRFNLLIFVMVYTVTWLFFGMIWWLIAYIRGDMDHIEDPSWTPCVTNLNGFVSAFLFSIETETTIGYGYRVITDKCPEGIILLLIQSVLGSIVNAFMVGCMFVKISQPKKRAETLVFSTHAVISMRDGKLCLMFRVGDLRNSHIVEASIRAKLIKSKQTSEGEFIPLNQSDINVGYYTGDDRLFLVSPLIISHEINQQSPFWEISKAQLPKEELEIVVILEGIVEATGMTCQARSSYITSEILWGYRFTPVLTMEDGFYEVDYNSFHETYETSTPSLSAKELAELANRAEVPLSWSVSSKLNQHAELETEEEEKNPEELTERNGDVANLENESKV
Nature of the test: two-electrode voltage clamp (TEVC) in Xenopus oocytes expressing GIRK1/2 wild-type. It is filed as cell-based, human GIRK1, mouse GIRK2. Set-up: expressed in transfected cells; host or cells: Xenopus laevis oocytes (cRNA injection). To be noted: for activation of GIRK1/2 (in words) / potency/efficacy compared to GAT1508 (in words): concentration-response, FIGS. 34A-34I; for Emax: ML297 considered 100%, read-out: EMAX at GIRK1/2, % relative to ML297; for EC50 / selectivity for GIRK1/2 over GIRK1/4 (in words): TEVC; for EC50: Xenopus oocytes, GIRK1/2 wild-type; for EMAX at GIRK1/2: current normalized to basal current; for selectivity for GIRK1/2 over GIRK1/4 (in words): GIRK1/2 versus GIRK1/4.
Excerpt: as §1, §2, §3, §4

The test system of test [1] is BLA neurons (GIRK currents). Briefly: whole-cell patch-clamp in acute brain slices, basolateral amygdala (BLA) neurons. It is filed as cell-based, rat. To be noted: 100 ms puff of 100 μM, compared to baseline. Here is the method: Electrophysiological recordings from brain slices containing basolateral amygdala (BLA) neurons: Electrophysiology was performed using 150-200 g male Sprague-Dawley rats (Harlan/Envigo, Indianapolis, IN). Rats were group housed in plastic cages in standard housing conditions with ad libitum access to food and water with 12:12 light/dark cycle (lights on at 07:00 h). All experiments were conducted in accordance with the Guide for the Care and Use of Laboratory Animals (Institute for Laboratory Animal Research, The National Academies Press) and the guidelines of the IUPUI Institutional Animal Care and Use Committee. Rats were anesthetized with isoflurane and immediately decapitated. Brains were then rapidly removed, placed in ice-cold oxygenated artificial cerebrospinal fluid solution (ACSF) and coronal slices ([…]) were prepared containing the amygdala. Slices were incubated at 31° C. for 30 min and then returned to room temperature until recording. [ACSF solution in mM: 130 NaCl; 3.5 KCl; 1.1 KH2PO4; 1.3 MgCl2; 2.5 CaCl2; 30 NaHCO3; 10 glucose, 315 mOsm, 7.4 pH]. Cells were identified for recording at 40× magnification using Scientifica Slicescope microscope under DIC illumination (Scientifica, Uckfield, UK). ACSF was warmed to 30° C. and perfused at a rate of 2-3 ml/min during recordings. Compounds were added to ACSF at desired concentrations. Whole-cell patch-clamp recordings were obtained using standard techniques. Borosilicate glass electrodes (WPI, Sarasota, FL) (resistance 3-6 MΩ) were prepared and used for both recording and baclofen application. [Recording internal solution in mM: 140 K-gluconate; 2 KCl; 3 MgCl2; 10 HEPES; 5 Phosphocreatinine; 2 K-ATP; 0.2 Na-GTP, 290 mOsm, 7.4 pH]. In voltage-clamp mode, the cell was adjusted to −50 mV at the beginning of all experiments and 5 min stable baseline was established before treatment. Picospritzer II (Parker Hannifin, Hollis, NH) was utilized for local application of 100 μM GABA-B agonist baclofen in ACSF to activate GIRKs. Baseline and baclofen-induced currents were averaged from three responses per cell and analyzed using ClampFit software (Molecular Devices, San Jose, CA). […] Several control cells were subjected to baclofen at 2 min intervals for 30 min and consistent responses were observed, thus ruling out time-dependent effects.
The inventors employed whole-cell patch-clamp recording in acute brain slices to examine the effect of GAT1508. The inventors utilized brain slices that included the basolateral amygdala (BLA), a limbic structure that has been extensively described to coordinate the acquisition and expression of fear memories. […] Next, the inventors examined the response of BLA neurons to baclofen, a GABAB-receptor agonist that induces GIRK-mediated potassium currents. […]

“Also recorded” adds a separate entry of the source.

For `Cc1cc(NC(=O)Nc2ccc(I)s2)n(-c2ccccc2)n1` [GAT1574, 1-(5-iodothiophen-2-yl)-3-(3-methyl-1-phenyl-1H-pyrazol-5-yl)urea], the “activation of GIRK1/4 (in words)” value on GIRK1/4 is “poorer activator than the bromine analog; also recorded: negligible”. Also, the “activation of GIRK1/2 (in words)” value on GIRK1/2 is recorded as “poorer activator than the bromine analog; also recorded: negligible”.

Turning to `Cc1cc(NC(=O)Nc2cc(Br)cs2)n(-c2ccccc2)n1` [GAT1502, 1-(4-bromothiophen-2-yl)-3-(3-methyl-1-phenyl-1H-pyrazol-5-yl)urea], at GIRK1/4, the Emax came out at 104%, the EC50 is 3.13 ± 0.24 µM, the “activation of GIRK1/4 (in words)” value is recorded as “much poorer activators” and the “EMAX at GIRK1/4” value amounted to 1.63±0.09. Also, on GIRK1/2, the Emax was determined as 91%, the concentration giving a half-maximal response (EC50) was 4.41 ± 0.15 µM, the “activation of GIRK1/2 (in words)” value is “much poorer activators” and the “EMAX at GIRK1/2” value came to 2.70±0.20.

With `NCC(CC(=O)O)c1ccc(Cl)cc1` (stereo not drawn) [baclofen, reference compound], the “current response of BLA neurons (in words)” value in test [1] is reported as “induced a significant outward current”.

Take `Cc1cc(NC(=O)Nc2cccs2)n(-c2ccccc2)n1` [GAT1506, 1-(3-methyl-1-phenyl-1H-pyrazol-5-yl)-3-(thiophen-2-yl)urea]: at GIRK1/4, the Emax came to 157%, the EC50 was 7.02 ± 0.24 µM and the “EMAX at GIRK1/4” value was 1.95±0.21. In addition, on GIRK1/2, the Emax turned out to be 155%, the “selectivity for GIRK1/2 over GIRK1/4 (in words)” value (shortened to “selectivity”) is “lacked selectivity”, a half-maximal effect (EC50) was put at 17.1 ± 0.28 µM and the “potency/efficacy compared to GAT1508 (in words)” value is listed as “less potent than GAT1508”. In addition, on GIRK1/2, the “EMAX at GIRK1/2” value is reported as 3.9±1.04.

For the compound `Cc1cc(NC(=O)Nc2ccc(Cl)s2)n(-c2ccccc2)n1` [GAT1501, 1-(5-chlorothiophen-2-yl)-3-(3-methyl-1-phenyl-1H-pyrazol-5-yl)urea], the “activation of GIRK1/4 (in words)” value at GIRK1/4 was “did not show activation of GIRK1/4 at concentrations less than 20 μM; also recorded: negligible”. Besides, on GIRK1/2, the Emax worked out at 96%; the “selectivity” value is on record as “retained some selectivity”; the midpoint of the response, the EC50, lay at 4.05 ± 0.14 µM; the “potency/efficacy compared to GAT1508 (in words)” value is given as “less potent than GAT1508 for GIRK1/2”. The “EMAX at GIRK1/2” value at GIRK1/2 was 2.797±0.18.

On to `Cc1cc(NC(=O)Nc2ccc(F)s2)n(-c2ccccc2)n1` [GAT1575, 1-(5-fluorothiophen-2-yl)-3-(3-methyl-1-phenyl-1H-pyrazol-5-yl)urea], for which, at GIRK1/4, the Emax worked out at 192%, the EC50 was found to be 11.2 ± 0.25 µM and the “EMAX at GIRK1/4” value was 2.16±0.32. On GIRK1/2, the Emax worked out at 210%; the “selectivity” value is “less selective between GIRK1/2 and GIRK1/4 than GAT1508”; the midpoint of the response, the EC50, lay at 9.39 ± 0.12 µM; the “potency/efficacy compared to GAT1508 (in words)” value is listed as “highly efficacious but much less potent than GAT1508”. Also, the “EMAX at GIRK1/2” value at GIRK1/2 is given as 4.92±0.49.

For the compound `Cc1cc(NC(=O)N/C=C/c2ccccc2)n(-c2ccccc2)n1` [GAT1537], at GIRK1/4, the “modulation of GIRK1/4 channels (in words)” value is recorded as “little or no effect”.

On to `Cc1cc(NC(=O)Nc2cnc(Br)s2)n(-c2ccccc2)n1` [GAT1530, 1-(2-bromothiazol-5-yl)-3-(3-methyl-1-phenyl-1H-pyrazol-5-yl)urea], for which the “selectivity” value on GIRK1/2 is on record as “lack of specificity”.

Turning to `Cc1nn(-c2ccccc2)c(NC(=O)Nc2ccc(F)c(F)c2)c1Br` [GAT1528], the “modulation of GIRK1/4 channels (in words)” value at GIRK1/4 was “selective for GIRK1/4 inhibition against GIRK1/2 channel activity”. Besides, the “modulation of GIRK1/2 channels (in words)” value on GIRK1/2 (Examples 5 and 6, Xenopus oocytes) is recorded as “no effect on basal activity”.

For the compound `Cc1cc(NC(=O)Nc2sccc2Br)n(-c2ccccc2)n1` [GAT1570, 1-(3-bromothiophen-2-yl)-3-(3-methyl-1-phenyl-1H-pyrazol-5-yl)urea], the “activation of GIRK1/4 (in words)” value at GIRK1/4 is listed as “much poorer activators; also recorded: negligible”. In addition, the “activation of GIRK1/2 (in words)” value on GIRK1/2 is on record as “much poorer activators; also recorded: negligible”.

Source of the values: US12351574B2, “Selective ligands for modulation of GIRK channels” (Northeastern University, priority 2018, dated 2025).
